Laboratory results: patent US4123532A, “Method for treatment of asthma” (E. R. Squibb & Sons, Inc., priority 1977, dated 1978)
Like-named read-outs stand apart in the source and are kept apart here.

Tested on: reaginic antibody-induced passive cutaneous anaphylaxis (PCA) reaction
Assay: Passive Cutaneous Anaphylaxis (PCA) Test in rats (anti-asthma activity)
Format: in vivo, rat
Conditions: for ED50: Rattus norvegicus, read-out: ID50 (the source's name); for anti-asthma activity: rat PCA testing, result in words
Source text: The skin of rats is first sensitized by the intradermal injection of reaginic (allergic) antibody. Twenty-four hours later, the animals receive a challenge injection of antigen together with Evan's blue dye given intravenously. The antigen, thus injected directly into the circulation, encounters the antibody in the skin and an "allergic reaction" occurs which is identified by the formation of intracutaneous edema. The edema is marked by the presence of the Evan's blue dye in the circulation.
The anti-asthmatic activity of these compounds is determined by the reaginic antibody-induced passive cutaneous anaphylaxis (PCA) reaction in rats.
In this test, 0.05 ml of appropriately diluted whole rat serum containing IgE antibody is injected intradermally into the skin of a rat. The next day, the animals are dosed with the test compound ten minutes prior to the i.v. challenge injection of antigen and Evan's blue dye. Thirty minutes later, the animals are sacrificed, the skin reflected and the reaction quantitated by measuring the dye-marked edema and scoring the color intensity of the reaction.

[1] = IP, rats dosed ten min. prior to challenge
[2] = IP, 75 mpk, rats dosed ten min. prior to challenge

CCOC(=O)c1nn2c(=O)[nH]c3ccccc3c2c1C [Example 15]
% Inhibition (PCA, IP, 150 mpk): 63%
ED50 (PCA, IP): 58 mg/kg

CCCCOC(=O)c1cc2c3ccccc3[nH]c(=O)n2n1 [5,6-Dihydro-5-oxopyrazolo[1,5-c]-quinazoline-2-carboxylic acid, n-butyl ester]
Maximum % inhibition (IP, (150 mpk) (10 mg/kg) both printed, rats dosed ten min. prior to challenge): 78%
ED50 [1]: 9 mg/kg
anti-asthma activity: has anti-asthma activity

CCOC(=O)c1c(-c2ccccc2)nn2c(=O)[nH]c3ccccc3c12 [5,6-Dihydro-5-oxo-2-phenylpyrazolo[1,5-c]quinazoline-1-carboxylic acid, ethyl ester]
Maximum % inhibition [2]: 42%
anti-asthma activity: has anti-asthma activity

O=C(c1ccccc1)c1cc2c3ccccc3[nH]c(=O)n2n1 [Example 16]
% Inhibition (PCA, IP, 150 mpk): 37%

CCOC(=O)c1cc2c3ccccc3[nH]c(=O)n2n1 [5,6-Dihydro-5-oxopyrazolo[1,5-c]quinazoline-2-carboxylic acid, ethyl ester]
Maximum % inhibition (IP, 10 mg/kg, rats dosed ten min. prior to challenge): 94%
Maximum % inhibition (PO, 9 mg/kg, rats dosed ten min. prior to challenge): 95%
ED50 [1]: 2 mg/kg
ED50 (PO (orally), rats dosed ten min. prior to challenge): 3 mg/kg
anti-asthma activity: has anti-asthma activity

CCOC(=O)c1cc2c3cc(Cl)ccc3[nH]c(=O)n2n1 [9-Chloro-5,6-dihydro-5-oxopyrazolo[1,5-c]quinazoline-2-carboxylic acid, ethyl ester]
Maximum % inhibition [2]: 93%
ED50 [1]: 9 mg/kg
anti-asthma activity: has anti-asthma activity

COC(=O)c1nn2c(=O)[nH]c3ccccc3c2c1C(=O)OC [Example 11]
% Inhibition (PCA, IP, 150 mpk): 21%

CC(=O)c1cc2c3ccccc3n(C)c(=O)n2n1 [Example 14]
% Inhibition (PCA, IP, 150 mpk): 32%

CC(=O)c1cc2c3ccccc3[nH]c(=O)n2n1 [Example 12]
% Inhibition (PCA, IP, 75 mpk): 32%

O=C(O)c1cc2c3ccccc3[nH]c(=O)n2n1 [Example 13, 5,6-Dihydro-5-oxopyrazolo-[1,5-c]quinazoline-2-carboxylic acid]
% Inhibition (PCA, IP, 75 mpk): 36%

O=c1[nH]c2ccccc2c2ccnn12 [Pyrazolo[1,5-c]quinazoline-5(6H)-one, Pyrazolo[1,5-c]quinazolin-5(6H)-one]
Maximum % inhibition [2]: 59%
anti-asthma activity: has anti-asthma activity

CCOC(=O)c1cc2c3cc(OC)ccc3[nH]c(=O)n2n1 [Example 17]
% Inhibition (PCA, IP, 25 mpk): 90%
